Experimental data taken from patent US20120270237A9, “METHODS FOR THE IDENTIFICATION OF KINASE INTERACTING MOLECULES AND FOR THE PURIFICATION OF KINASE PROTEINS” (Cellzone AG, priority 2009, published 2012).

Columns and labels:
Experiment in all cases: Kinobeads competition binding, L-363 cell lysate
Parameters in all cases: endogenous in cells
Details in all cases: 10 μM free compound, L-363 lysate
CDK9 = CDK9 (Homo sapiens, UniProt P50750)
Protocol: (§1) To one aliquot of cell lysate 10 μM of the free compound (FIG. 3, CZC31326) was added and allowed to bind to proteins in the lysate. Then the affinity matrix with the immobilized compound was added to capture proteins that were not interacting with the previously added free compound. Beads were separated from the lysate and bead bound proteins were eluted in SDS sample buffer and subsequently separated by SDS-Polyacrylamide gel electrophoresis (FIG. 8). Suitable gel bands were cut out and subjected to in-gel proteolytic digestion with trypsin. The second lysate aliquot was processed identically, however no free compound was added (DMSO solvent control). Peptides originating from samples 1 and 2 were labeled with iTRAQ reagents (iTRAQ 114 and iTRAQ 117) and the combined samples were analyzed with a nano-flow liquid chromatography system coupled online to a tandem mass spectrometer (LC-MS/MS) experiment followed by iTRAQ reporter ion quantification in the MS/MS spectra as described in Example 2.
(§2) For this experiment the human plasma cell leukaemia line L-363 was used (German Collection of Microorganisms and Cell Cultures, DSMZ number ACC49, Braunschweig, Germany). Cells were treated for three hours with 20 μM of the proteasome inhibitor MG132 (Z-Leu-Leu-Leu-al, Sigma C2211) prior to cell harvesting.

TYK2 = TYK2 (Homo sapiens, UniProt P29597)
Sequence of TYK2 (P29597 whole entry): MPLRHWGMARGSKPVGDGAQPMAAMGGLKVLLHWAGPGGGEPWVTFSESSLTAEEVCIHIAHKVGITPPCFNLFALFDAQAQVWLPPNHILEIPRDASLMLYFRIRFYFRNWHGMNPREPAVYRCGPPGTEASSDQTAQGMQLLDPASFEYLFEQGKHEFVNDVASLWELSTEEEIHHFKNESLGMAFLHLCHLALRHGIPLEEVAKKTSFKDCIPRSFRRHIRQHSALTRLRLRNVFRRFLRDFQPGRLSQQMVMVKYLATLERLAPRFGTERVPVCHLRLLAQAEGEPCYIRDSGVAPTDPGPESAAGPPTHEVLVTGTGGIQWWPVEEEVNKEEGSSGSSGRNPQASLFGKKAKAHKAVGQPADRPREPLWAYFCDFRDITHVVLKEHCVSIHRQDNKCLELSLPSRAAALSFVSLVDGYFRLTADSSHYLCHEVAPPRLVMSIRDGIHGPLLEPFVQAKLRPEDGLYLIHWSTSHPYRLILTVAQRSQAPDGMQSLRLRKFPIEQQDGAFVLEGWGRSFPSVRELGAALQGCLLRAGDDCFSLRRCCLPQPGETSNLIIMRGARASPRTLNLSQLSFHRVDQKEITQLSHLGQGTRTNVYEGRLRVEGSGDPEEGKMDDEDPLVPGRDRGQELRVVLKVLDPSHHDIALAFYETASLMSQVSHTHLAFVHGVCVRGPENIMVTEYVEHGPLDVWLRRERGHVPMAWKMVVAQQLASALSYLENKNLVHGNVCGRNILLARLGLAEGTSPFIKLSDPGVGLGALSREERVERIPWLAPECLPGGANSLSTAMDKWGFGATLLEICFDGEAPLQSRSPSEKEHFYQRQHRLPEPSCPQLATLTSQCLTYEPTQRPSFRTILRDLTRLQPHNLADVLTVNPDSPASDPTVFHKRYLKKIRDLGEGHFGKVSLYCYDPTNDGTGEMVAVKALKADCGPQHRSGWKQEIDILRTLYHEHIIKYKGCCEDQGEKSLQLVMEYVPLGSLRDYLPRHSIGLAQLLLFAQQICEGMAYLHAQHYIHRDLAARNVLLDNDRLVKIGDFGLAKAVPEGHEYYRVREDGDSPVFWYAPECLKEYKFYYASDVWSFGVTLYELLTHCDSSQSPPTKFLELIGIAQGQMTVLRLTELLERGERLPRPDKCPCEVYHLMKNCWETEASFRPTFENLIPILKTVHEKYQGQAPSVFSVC
Protocol: as §1, §2

IRAK4 = target: T1, IRAK4 (Homo sapiens, UniProt Q9NWZ3)
T1 sequence (Q9NWZ3 1-460): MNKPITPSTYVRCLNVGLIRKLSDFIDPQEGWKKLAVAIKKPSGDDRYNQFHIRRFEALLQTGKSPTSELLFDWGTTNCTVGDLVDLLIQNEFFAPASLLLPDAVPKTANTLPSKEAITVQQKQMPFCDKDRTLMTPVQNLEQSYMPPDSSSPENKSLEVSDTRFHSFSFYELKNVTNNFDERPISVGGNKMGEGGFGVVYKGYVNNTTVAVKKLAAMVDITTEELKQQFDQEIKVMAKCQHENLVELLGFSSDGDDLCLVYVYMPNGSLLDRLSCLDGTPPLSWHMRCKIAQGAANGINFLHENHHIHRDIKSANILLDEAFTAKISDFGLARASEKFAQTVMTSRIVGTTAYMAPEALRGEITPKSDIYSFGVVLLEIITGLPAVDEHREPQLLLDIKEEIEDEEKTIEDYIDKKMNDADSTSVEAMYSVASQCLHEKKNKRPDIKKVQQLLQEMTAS
Protocol: as §1, §2

MAP3K5 = target: T2, MAP3K5 (Homo sapiens, UniProt Q99683)
T2 sequence (Q99683 1-1374): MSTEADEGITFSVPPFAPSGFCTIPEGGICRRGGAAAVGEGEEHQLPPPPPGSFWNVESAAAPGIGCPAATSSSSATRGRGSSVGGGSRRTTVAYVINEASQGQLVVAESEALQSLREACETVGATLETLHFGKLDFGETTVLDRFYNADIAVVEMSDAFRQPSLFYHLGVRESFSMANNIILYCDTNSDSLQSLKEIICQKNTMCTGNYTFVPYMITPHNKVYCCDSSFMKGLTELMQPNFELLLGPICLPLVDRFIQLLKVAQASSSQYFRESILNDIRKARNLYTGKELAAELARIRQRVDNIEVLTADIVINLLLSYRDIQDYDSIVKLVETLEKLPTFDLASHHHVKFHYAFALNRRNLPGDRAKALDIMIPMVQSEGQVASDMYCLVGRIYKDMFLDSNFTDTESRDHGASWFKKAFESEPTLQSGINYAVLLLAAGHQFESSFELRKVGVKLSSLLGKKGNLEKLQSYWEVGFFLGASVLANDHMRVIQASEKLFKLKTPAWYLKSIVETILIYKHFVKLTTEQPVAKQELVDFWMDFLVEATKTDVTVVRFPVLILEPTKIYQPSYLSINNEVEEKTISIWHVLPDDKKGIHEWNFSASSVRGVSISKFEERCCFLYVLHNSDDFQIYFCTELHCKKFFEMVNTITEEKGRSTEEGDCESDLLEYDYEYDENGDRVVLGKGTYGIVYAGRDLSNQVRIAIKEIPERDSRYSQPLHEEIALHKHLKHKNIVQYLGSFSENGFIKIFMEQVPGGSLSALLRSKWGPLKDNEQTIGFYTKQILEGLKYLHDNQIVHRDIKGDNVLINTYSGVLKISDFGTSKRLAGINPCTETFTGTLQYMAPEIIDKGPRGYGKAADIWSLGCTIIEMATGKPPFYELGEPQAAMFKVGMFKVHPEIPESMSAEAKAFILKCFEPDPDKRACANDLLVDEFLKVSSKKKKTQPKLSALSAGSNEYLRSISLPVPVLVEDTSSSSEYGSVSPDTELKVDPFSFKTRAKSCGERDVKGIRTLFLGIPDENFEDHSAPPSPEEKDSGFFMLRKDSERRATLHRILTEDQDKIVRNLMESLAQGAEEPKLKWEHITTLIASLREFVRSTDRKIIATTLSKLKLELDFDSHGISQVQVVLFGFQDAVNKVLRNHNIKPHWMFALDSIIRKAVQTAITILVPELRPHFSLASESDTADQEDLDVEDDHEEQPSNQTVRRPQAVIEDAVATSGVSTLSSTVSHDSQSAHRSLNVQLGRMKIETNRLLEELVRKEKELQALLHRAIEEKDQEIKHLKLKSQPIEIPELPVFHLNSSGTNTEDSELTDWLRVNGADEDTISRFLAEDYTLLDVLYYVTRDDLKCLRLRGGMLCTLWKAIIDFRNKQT
Protocol: as §1, §2

ALK2 = ALK2 (Homo sapiens, UniProt Q04771)
Sequence of ALK2 (Q04771 21-509): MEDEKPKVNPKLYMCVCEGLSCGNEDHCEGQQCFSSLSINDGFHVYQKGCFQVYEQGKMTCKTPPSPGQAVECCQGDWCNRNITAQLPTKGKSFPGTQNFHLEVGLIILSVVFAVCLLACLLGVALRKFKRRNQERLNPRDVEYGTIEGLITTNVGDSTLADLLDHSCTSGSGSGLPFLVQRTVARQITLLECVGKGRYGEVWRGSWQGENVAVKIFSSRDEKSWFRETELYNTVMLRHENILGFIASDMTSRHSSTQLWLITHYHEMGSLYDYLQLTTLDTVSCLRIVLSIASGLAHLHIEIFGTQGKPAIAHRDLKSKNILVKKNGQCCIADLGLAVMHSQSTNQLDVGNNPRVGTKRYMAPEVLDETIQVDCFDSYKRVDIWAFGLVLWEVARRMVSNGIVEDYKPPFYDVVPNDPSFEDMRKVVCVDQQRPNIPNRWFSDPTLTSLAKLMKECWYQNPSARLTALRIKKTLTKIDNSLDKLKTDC
Protocol: as §1, §2

Sequence of CDK9 (P50750 whole entry): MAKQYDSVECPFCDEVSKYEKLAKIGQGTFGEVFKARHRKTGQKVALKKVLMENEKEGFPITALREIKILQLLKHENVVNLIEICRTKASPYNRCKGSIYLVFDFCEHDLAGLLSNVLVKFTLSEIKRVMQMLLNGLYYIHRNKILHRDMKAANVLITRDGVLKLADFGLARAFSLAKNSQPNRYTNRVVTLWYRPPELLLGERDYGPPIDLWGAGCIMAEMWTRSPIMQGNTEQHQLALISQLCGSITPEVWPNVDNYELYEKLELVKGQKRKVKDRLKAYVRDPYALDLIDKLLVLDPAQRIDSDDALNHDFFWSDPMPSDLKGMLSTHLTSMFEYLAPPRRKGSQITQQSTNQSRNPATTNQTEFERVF

`CS(=O)(=O)Nc1ccccc1Nc1nc(Nc2cccc(OCCN)c2)ncc1Cl` [CZC31326, N-(2-(2-(3-(2-aminoethoxy)phenylamino)-5-chloropyrimidin-4-ylamino)phenyl)methanesulfonamide] was tested. Which inhibition at 10 µM (CDK9) did it give?
The inhibition at 10 µM was 97.7%.

What about the Competition % (TYK2) of the same compound?
Its Competition % is 96.9%.

What about the Competition % (IRAK4) of the same compound?
Its Competition % is 97.4%.

What about the inhibition at 10 µM (MAP3K5) of the same compound?
The inhibition at 10 µM was 91.3%.

What about the inhibition at 10 µM (ALK2) of the same compound?
Its inhibition at 10 µM is 95.7%.
